This is an account of results in patent US20250382305A1 (PTC THERAPEUTICS, INC., priority 2022, published 2025).

One experiment has as its system ATXN3 pre-mRNA. As to the kind of experiment: RT-qPCR Assay to Quantify Exon 4 Skipping in ATXN3 pre-mRNA in Cells. The conditions noted are these: percent exon 4 skipping in ATXN3 pre-mRNA, RT-qPCR of cell lysates; average IC50. In kind it is cell-based. Summed up:
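IC50 derives from a dose-response fit of percent exon 4 skipping, quantified by RT-qPCR on crude lysates. Compounds tested as 7-point 3.16-fold dilutions in duplicate; cells (10,000/well) were exposed for 24 h at 37 °C before lysis.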

The test system of experiment [1] is Total ATXN3 (tATXN3) protein. As to the kind of experiment: Endogenous Total ATXN3 (tATXN3) Protein Assay (MSD immunoassay of cell lysates). Format: cell-based. The conditions noted are these: average IC50, total ATXN3 protein in cell lysate after 48 h with compound (Table 1). An outline of the steps: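 By electrochemiluminescent MSD sandwich immunoassay (mouse monoclonal capture, rabbit monoclonal and SULFO-TAG anti-rabbit detection), endogenous ATXN3 was quantified in lysates of cells treated 48 h at 37° C at 10,000 cells/well. Treatment used a 7-point 3.16-fold duplicate dilution series, with average IC50 grouped into star categories.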

Turning to `N[C@H]1CCCCC[C@H]1c1sc2c(NCc3cccs3)cc(Cl)nc2c1Cl` [Compound 77, 2-((1R,2S)-2-aminocycloheptyl)-3,5-dichloro-N-(thiophen-2-ylmethyl)thieno[3,2-b]pyridin-7-amine], the IC50 in the experiment on ATXN3 pre-mRNA is 300 to 1000 nM; in experiment [1], above 1000 nM.

For the compound `N[C@@H]1CCC[C@H]1c1sc2c(NCc3ccccc3)cc(Cl)nc2c1Cl` [Compound 167, 2-((1R,2R)-2-aminocyclopentyl)-N-benzyl-3,5-dichlorothieno[3,2-b]pyridin-7-amine], the half-inhibitory concentration (IC50) in the experiment with ATXN3 pre-mRNA lay in the range of 30 to 300 nM; in experiment [1], 300 to 1000 nM.

`N[C@@H]1CC=CC[C@H]1c1sc2c(NCc3ccco3)nc(Cl)nc2c1Cl` [Compound 437, 6-((1R,6R)-6-aminocyclohex-3-en-1-yl)-2,7-dichloro-N-(furan-2-ylmethyl)thieno[3,2-d]pyrimidin-4-amine]: the IC50 (with ATXN3 pre-mRNA; in experiment [1]) was at most 30 nM each time.

For the compound `CC#CCNc1cc(Cl)nc2c(I)c([C@@H]3CC=CC[C@H]3N)sc12` [Compound 386, 2-((1R,6R)-6-aminocyclohex-3-en-1-yl)-N-(but-2-yn-1-yl)-5-chloro-3-iodothieno[3,2-b]pyridin-7-amine], the IC50 (with ATXN3 pre-mRNA; in experiment [1]) was 30 to 300 nM in each case.

Regarding `Cc1c([C@H]2CC=CC[C@@H]2N)sc2c(NCc3ccccc3)nc(Cl)nc12` [Compound 326, 6-((1S,6S)-6-aminocyclohex-3-en-1-yl)-N-benzyl-2-chloro-7-methylthieno[3,2-d]pyrimidin-4-amine], the IC50 (with ATXN3 pre-mRNA; in experiment [1]) was 30 to 300 nM throughout.

As for `N[C@@H]1COCC[C@H]1c1sc2c(NCc3cccs3)cc(Cl)nc2c1Br` [Compound 140, 2-((3S,4R)-3-aminotetrahydro-2H-pyran-4-yl)-3-bromo-5-chloro-N-(thiophen-2-ylmethyl)thieno[3,2-b]pyridin-7-amine], the IC50 (with ATXN3 pre-mRNA; in experiment [1]) was 300 to 1000 nM throughout.

`COc1ncccc1C#Cc1c([C@H]2CC=CC[C@@H]2N)sc2c(NCc3cccs3)cc(Cl)nc12` [Compound 394, 2-((1S,6S)-6-aminocyclohex-3-en-1-yl)-5-chloro-3-((2-methoxypyridin-3-yl)ethynyl)-N-(thiophen-2-ylmethyl)thieno[3,2-b]pyridin-7-amine]: the 50% inhibitory concentration (IC50) (in the experiment on ATXN3 pre-mRNA; in experiment [1]) was 300 to 1000 nM throughout.

For the compound `Cn1c([C@H]2CCOC[C@@H]2N)c(Br)c2nc(Cl)cc(NCc3cccs3)c21` [Compound 351, 2-((3R,4S)-3-aminotetrahydro-2H-pyran-4-yl)-3-bromo-5-chloro-1-methyl-N-(thiophen-2-ylmethyl)-1H-pyrrolo[3,2-b]pyridin-7-amine], the IC50 (in the experiment with ATXN3 pre-mRNA; in experiment [1]) was 30 to 300 nM in each case.

On to “2-((1R,2R)-2-amino-5,5-difluorocyclohexyl)-5-chloro-3-methyl-N-(thiophen-2-ylmethyl)thieno[3,2-b]pyridin-7-amine and 2-((1S,2S)-2-amino-5,5-difluorocyclohexyl)-5-chloro-3-methyl-N-(thiophen-2-ylmethyl)thieno[3,2-b]pyridin-7-amine [Compound 333]”, for which the 50% inhibitory concentration (IC50) (with ATXN3 pre-mRNA; in experiment [1]) was 30 to 300 nM each time.

For the compound `N[C@H]1CC=CC[C@@H]1c1c(I)c2nc(Cl)nc(NCc3ccco3)c2n1C(F)F` [Compound 276, 6-((1S,6S)-6-aminocyclohex-3-en-1-yl)-2-chloro-5-(difluoromethyl)-N-(furan-2-ylmethyl)-7-iodo-5H-pyrrolo[3,2-d]pyrimidin-4-amine], the IC50 (in the experiment on ATXN3 pre-mRNA; in experiment [1]) was 30 to 300 nM throughout.

As to `N[C@@H]1CC=CC[C@H]1c1sc2c(NCc3cccs3)cc(Cl)nc2c1C#CCCCO.N[C@H]1CC=CC[C@@H]1c1sc2c(NCc3cccs3)cc(Cl)nc2c1C#CCCCO` (mixture of isomers) [Compound 175, 5-(2-((1R,6R)-6-aminocyclohex-3-en-1-yl)-5-chloro-7-((thiophen-2-ylmethyl)amino)thieno[3,2-b]pyridin-3-yl)pent-4-yn-1-ol and 5-(2-((1S,6S)-6-aminocyclohex-3-en-1-yl)-5-chloro-7-((thiophen-2-ylmethyl)amino)thieno[3,2-b]pyridin-3-yl)pent-4-yn-1-ol], the IC50 (in the experiment with ATXN3 pre-mRNA; in experiment [1]) was at most 30 nM in each case.

Consider “6-((3R,4S)-3-aminotetrahydro-2H-pyran-4-yl)-2,7-dichloro-N-(furan-2-ylmethyl)thieno[3,2-d]pyrimidin-4-amine and 6-((3S,4R)-3-aminotetrahydro-2H-pyran-4-yl)-2,7-dichloro-N-(furan-2-ylmethyl)thieno[3,2-d]pyrimidin-4-amine [Compound 354]”, for which the IC50 (in the experiment with ATXN3 pre-mRNA; in experiment [1]) was 30 to 300 nM in each case.

For `N[C@H]1COCC[C@@H]1c1sc2c(NCc3ccncc3)cc(Cl)nc2c1Br` [Compound 364, 2-((3R,4S)-3-aminotetrahydro-2H-pyran-4-yl)-3-bromo-5-chloro-N-(pyridin-4-ylmethyl)thieno[3,2-b]pyridin-7-amine], the IC50 (in the experiment with ATXN3 pre-mRNA; in experiment [1]) was 30 to 300 nM each time.

Turning to `N[C@H]1CCC[C@@H]1c1sc2c(NCc3ccco3)cc(Cl)nc2c1Cl` [Compound 117, 2-((1S,2S)-2-aminocyclopentyl)-3,5-dichloro-N-(furan-2-ylmethyl)thieno[3,2-b]pyridin-7-amine], the IC50 (in the experiment on ATXN3 pre-mRNA; in experiment [1]) was at most 30 nM throughout.

As to `N[C@@H]1CCC[C@H]1c1sc2c(NCc3ccco3)cc(Cl)nc2c1Cl` [Compound 114, 2-((1R,2R)-2-aminocyclopentyl)-3,5-dichloro-N-(furan-2-ylmethyl)thieno[3,2-b]pyridin-7-amine], the IC50 (with ATXN3 pre-mRNA; in experiment [1]) was above 1000 nM in each case.

With `N[C@@H]1CCCO[C@H]1c1sc2c(NCc3ccccc3)cc(Cl)nc2c1Br` [Compound 113, 2-((2R,3R)-3-aminotetrahydro-2H-pyran-2-yl)-N-benzyl-3-bromo-5-chlorothieno[3,2-b]pyridin-7-amine], the IC50 (in the experiment with ATXN3 pre-mRNA; in experiment [1]) was above 1000 nM in each case.
